Laboratory results from US20070060480A1, “Heteroaroyl-substituted phenylalanineamides” (priority 2003, published 2007).

Assays:
Setaria viridis = experiment: greenhouse post-emergence herbicidal test; assay type: in vivo; conditions: for post-emergence activity against green foxtail: application rate 1.0 kg/ha
Experimental: (§1) The seeds of the test plants were sown separately for each species. For the post-emergence treatment, the test plants were grown to a plant height of from 3 to 15 cm, depending on the plant habit, and only then treated with the active ingredients which had been suspended or emulsified in water. To this end, the test plants were either sown directly and grown in the same containers, or they were first grown separately as seedlings and transplanted into the test containers a few days prior to treatment. […] (active substance). Depending on the species, the plants were kept at from 10 to 25° C. and 20 to 35° C., respectively. The test period extended over 2 to 4 weeks. During this time, the plants were tended, and their response to the individual treatments was evaluated. Evaluation was carried out using a scale of from 0 to 100. 100 means no emergence of the plants, or complete destruction of at least the aerial parts, and 0 means no damage or normal course of growth. The plants used in the greenhouse experiments belonged to the following species: [table]

Amaranthus retroflexus = experiment: greenhouse post-emergence herbicidal test; assay type: in vivo; conditions: for post-emergence activity against pig weed: application rate 1.0 kg/ha
Experimental: as §1

Chenopodium album = experiment: greenhouse post-emergence herbicidal test; assay type: in vivo; conditions: for post-emergence activity against lambsquarters: application rate 1.0 kg/ha
Experimental: as §1

Galium aparine = experiment: greenhouse post-emergence herbicidal test; assay type: in vivo; conditions: application rate 1.0 kg/ha
Experimental: as §1

Polygonum convolvulus = experiment: greenhouse post-emergence herbicidal test; assay type: in vivo; conditions: application rate 1.0 kg/ha
Experimental: as §1

Echinocloa crus-galli = experiment: greenhouse post-emergence herbicidal test; assay type: in vivo; conditions: application rate 1.0 kg/ha
Experimental: as §1

For CNC(=O)C(NC(=O)c1cn(C)nc1C(F)(F)F)C(C)c1ccccc1C (mixture of isomers) [Compound 4.6], the “post-emergence activity against green foxtail” value (Setaria viridis) was “very good”, the “post-emergence activity against pig weed” value (Amaranthus retroflexus) was “very good” and the “post-emergence activity against lambsquarters” value (Chenopodium album) was “very good”.

Work on CNC(=O)C(NC(=O)c1cn(C)nc1C(F)(F)F)C(O)c1ccccc1 (racemic) [Compound 4.9, N-(2-Hydroxy-1-methylcarbamoyl-2-phenylethyl)-1-methyl-3-trifluoromethyl-1H-pyrazole-4-carboxamide] yielded a melting point of 216 °C.

In the case of CCC(CC)C(=O)OC(c1ccccc1)C(NC(=O)c1cn(C)nc1C(F)(F)F)C(=O)NC (racemic) [Compound 4.14], the “post-emergence activity against green foxtail” value (Setaria viridis) is reported as “very good”, the “post-emergence activity against pig weed” value (Amaranthus retroflexus) is reported as “very good” and the “post-emergence activity against lambsquarters” value (Chenopodium album) is reported as “very good”.

Work on CNC(=O)C(NC(=O)c1cn(C)nc1C(F)(F)F)C(OC(=O)C(C)(C)C)c1ccccc1 (racemic) [Compound 4.15, 2-Methylcarbamoyl-2-[(1-methyl-3-trifluoromethyl-1H-pyrazole-4-carbonyl)amino]-1-phenylethyl 2,2-dimethylpropionate] yielded a melting point of 158 °C.

In the case of CNC(=O)C(NC(=O)c1cn(C)nc1C(F)(F)F)C(OS(C)(=O)=O)c1ccccc1 (racemic) [Compound 4.22], the “post-emergence action on green foxtail” value (Setaria viridis; application rate 0.5 kg/ha) is reported as “very good”, the “post-emergence action on pig weed” value (Amaranthus retroflexus; application rate 0.5 kg/ha) is reported as “very good” and the “post-emergence action on lambsquarters” value (Chenopodium album; application rate 0.5 kg/ha) is reported as “very good”.

With CNC(=O)C(NC(=O)c1ccsc1C(F)(F)F)C(OC(=O)COC)c1ccccc1 (racemic) [Compound 5.6] the “post-emergence activity against green foxtail” value (Setaria viridis) was “very good”, the “post-emergence activity against pig weed” value (Amaranthus retroflexus) was “very good” and the “post-emergence activity against lambsquarters” value (Chenopodium album) was “very good”.

With CNC(=O)C(NC(=O)c1cscc1C(F)(F)F)C(OC(=O)N(C)C)c1ccccc1 (racemic) [Compound 5.8] the “post-emergence activity against green foxtail” value (Setaria viridis) was “very good”, the “post-emergence activity against cleavers harrif” value (Galium aparine) was “very good” and the “post-emergence activity against black bindweed” value (Polygonum convolvulus) was “very good”. For the same compound, the “post-emergence activity against lambsquarters” value (Chenopodium album) was “very good” and the “post-emergence activity against cockspur” value (Echinocloa crus-galli) was “very good”.

For CNC(=O)C(NC(=O)c1cc(C)oc1C(F)(F)F)C(O)c1ccccc1 (racemic) [Compound 5.14], the “post-emergence activity against green foxtail” value (Setaria viridis) was “very good”, the “post-emergence activity against cleavers harrif” value (Galium aparine) was “very good” and the “post-emergence activity against lambsquarters” value (Chenopodium album) was “very good”. For the same compound, the “post-emergence activity against cockspur” value (Echinocloa crus-galli) was “very good”.

With CNC(=O)C(NC(=O)c1cc(C)oc1C(F)(F)F)C(OC(=O)N(C)C)c1ccccc1 (racemic) [Compound 5.16] the “post-emergence activity against green foxtail” value (Setaria viridis) was “very good”, the “post-emergence activity against black bindweed” value (Polygonum convolvulus) was “very good” and the “post-emergence activity against lambsquarters” value (Chenopodium album) was “very good”. For the same compound, the “post-emergence activity against cockspur” value (Echinocloa crus-galli) was “very good”.

In the case of CNC(=O)C(NC(=O)c1ccncc1C(F)(F)F)C(O)c1ccccc1 (racemic) [Compound 5.23], the “post-emergence activity against green foxtail” value (Setaria viridis) is reported as “very good”, the “post-emergence activity against cleavers harrif” value (Galium aparine) is reported as “very good” and the “post-emergence activity against pig weed” value (Amaranthus retroflexus) is reported as “very good”. The “post-emergence activity against lambsquarters” value (Chenopodium album) was “very good”.
